The text below walks through data of ChEMBL document CHEMBL1201862, “PubChem BioAssay data set” (2004).

SMILES strings stand for the structures. Where “and” joins values, the source holds several entries; their conditions need not be identical. Identical values can stand only once. Calls of active or inactive are those of the source.

In assay [1] the target is T1, Histone-lysine N-methyltransferase NSD2 (Homo sapiens, UniProt O96028).
T1 sequence (O96028 whole entry): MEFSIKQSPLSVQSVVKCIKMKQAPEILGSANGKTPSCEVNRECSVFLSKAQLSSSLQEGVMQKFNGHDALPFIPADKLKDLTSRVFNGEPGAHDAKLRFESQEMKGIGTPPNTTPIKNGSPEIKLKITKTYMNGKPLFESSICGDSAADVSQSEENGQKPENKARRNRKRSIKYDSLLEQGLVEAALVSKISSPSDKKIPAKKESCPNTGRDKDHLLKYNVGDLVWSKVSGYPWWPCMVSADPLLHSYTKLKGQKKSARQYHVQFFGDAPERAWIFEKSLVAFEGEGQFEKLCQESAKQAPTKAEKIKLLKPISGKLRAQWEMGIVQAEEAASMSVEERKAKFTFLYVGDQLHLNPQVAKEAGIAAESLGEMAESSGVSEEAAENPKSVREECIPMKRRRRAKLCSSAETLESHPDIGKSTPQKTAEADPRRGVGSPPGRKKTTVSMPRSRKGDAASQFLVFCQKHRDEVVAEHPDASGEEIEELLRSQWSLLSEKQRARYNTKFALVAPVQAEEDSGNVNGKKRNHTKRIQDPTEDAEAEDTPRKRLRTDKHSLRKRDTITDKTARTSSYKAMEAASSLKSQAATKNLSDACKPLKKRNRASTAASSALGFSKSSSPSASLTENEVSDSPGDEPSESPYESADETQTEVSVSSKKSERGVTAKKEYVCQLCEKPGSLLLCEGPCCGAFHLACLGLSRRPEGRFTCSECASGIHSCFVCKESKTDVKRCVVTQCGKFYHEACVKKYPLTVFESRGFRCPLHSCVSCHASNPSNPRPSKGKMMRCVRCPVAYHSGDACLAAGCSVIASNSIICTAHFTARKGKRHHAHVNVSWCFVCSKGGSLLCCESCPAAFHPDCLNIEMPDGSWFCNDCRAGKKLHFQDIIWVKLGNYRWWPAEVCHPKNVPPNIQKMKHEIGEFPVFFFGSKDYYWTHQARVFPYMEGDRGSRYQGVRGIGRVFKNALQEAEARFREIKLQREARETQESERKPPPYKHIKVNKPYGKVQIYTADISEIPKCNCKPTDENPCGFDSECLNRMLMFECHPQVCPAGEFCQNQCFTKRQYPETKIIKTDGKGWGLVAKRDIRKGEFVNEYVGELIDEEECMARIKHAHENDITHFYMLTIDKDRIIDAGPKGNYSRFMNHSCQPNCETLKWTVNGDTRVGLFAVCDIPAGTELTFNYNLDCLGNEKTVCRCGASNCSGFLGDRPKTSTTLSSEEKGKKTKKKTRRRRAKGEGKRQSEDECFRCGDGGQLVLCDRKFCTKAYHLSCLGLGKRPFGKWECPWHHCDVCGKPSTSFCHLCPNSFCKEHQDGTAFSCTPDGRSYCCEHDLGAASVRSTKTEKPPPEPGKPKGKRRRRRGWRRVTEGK
Format: biochemical.

Assay [2] can be described thus: Cytotoxicity screening for potential Inhibitors of Bacterial Capsule Biogenesis. [Related pubchem assays (depositor defined):AID488970]. The assay is classed as functional.
Assay [3] addresses Nonstructural protein 1 (Influenza A virus, UniProt Q194T2). The assay is classed as functional, Influenza A virus (A/California/07/2009(H1N1)).
Assay [4] is described as follows: human group III sPLA2 inhibitors, dose response, biochemical, QFRET, IC50 (AID 743457).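 Note: green fluorescence rise as the enzyme cleaves BODIPY PC-A2 in liposomes; potency for inhibition of the enzyme.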
Assay [5] has as its target Dual specificity tyrosine-phosphorylation-regulated kinase 1A (Rattus norvegicus, UniProt Q63470). Format: biochemical, Homo sapiens.
In assay [6] the target is T2, Rac GTPase-activating protein 1 (Homo sapiens, UniProt Q9H0H5).
T2 sequence (Q9H0H5 whole entry): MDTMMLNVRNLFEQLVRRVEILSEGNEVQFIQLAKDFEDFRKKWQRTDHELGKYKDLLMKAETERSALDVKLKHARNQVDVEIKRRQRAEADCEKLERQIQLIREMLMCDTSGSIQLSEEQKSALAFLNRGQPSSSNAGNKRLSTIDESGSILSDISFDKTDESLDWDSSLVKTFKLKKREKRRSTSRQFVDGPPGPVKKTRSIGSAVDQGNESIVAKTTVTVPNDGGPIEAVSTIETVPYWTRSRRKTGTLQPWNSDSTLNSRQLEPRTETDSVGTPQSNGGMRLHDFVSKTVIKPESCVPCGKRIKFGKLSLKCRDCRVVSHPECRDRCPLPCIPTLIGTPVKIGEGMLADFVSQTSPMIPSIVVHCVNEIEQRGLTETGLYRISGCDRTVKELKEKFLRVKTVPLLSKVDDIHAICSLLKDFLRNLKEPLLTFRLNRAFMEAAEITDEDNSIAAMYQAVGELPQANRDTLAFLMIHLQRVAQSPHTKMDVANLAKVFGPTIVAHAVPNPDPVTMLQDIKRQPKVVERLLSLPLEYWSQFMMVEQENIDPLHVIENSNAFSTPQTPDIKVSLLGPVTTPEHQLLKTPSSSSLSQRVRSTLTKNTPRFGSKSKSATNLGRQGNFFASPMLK
As to the kind of experiment: MgcRacGAP GTPase-activating activity inhibitors, confirmation, biochemical, ADP Hunter fluorescence, primary and confirmatory (AID 624330). Format: functional.

In assay [7] the target is T3, DNA repair protein RAD52 homolog (Homo sapiens, UniProt P43351).
T3 sequence (P43351 whole entry): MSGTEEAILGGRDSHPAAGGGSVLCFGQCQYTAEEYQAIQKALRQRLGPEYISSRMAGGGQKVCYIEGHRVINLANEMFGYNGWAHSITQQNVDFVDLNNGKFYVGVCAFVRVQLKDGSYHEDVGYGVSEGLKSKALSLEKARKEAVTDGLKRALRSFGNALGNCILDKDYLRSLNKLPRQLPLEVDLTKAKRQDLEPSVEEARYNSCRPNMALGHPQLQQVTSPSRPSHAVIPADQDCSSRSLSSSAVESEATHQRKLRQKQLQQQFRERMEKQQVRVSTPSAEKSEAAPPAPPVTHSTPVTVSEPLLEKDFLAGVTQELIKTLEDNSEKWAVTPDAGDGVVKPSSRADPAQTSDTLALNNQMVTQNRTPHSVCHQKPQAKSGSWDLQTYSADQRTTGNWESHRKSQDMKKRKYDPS
Format: functional, biochemical.

Assay [8] in a line: HeLa cell cytotoxicity, dose response, cytotoxicity control for MgcRacGAP inhibitor project (AID 624300). The assay is classed as functional.
The target of assay [9] is T4, Tyrosine-protein phosphatase non-receptor type 7 (Homo sapiens, UniProt P35236).
T4 sequence (P35236 whole entry): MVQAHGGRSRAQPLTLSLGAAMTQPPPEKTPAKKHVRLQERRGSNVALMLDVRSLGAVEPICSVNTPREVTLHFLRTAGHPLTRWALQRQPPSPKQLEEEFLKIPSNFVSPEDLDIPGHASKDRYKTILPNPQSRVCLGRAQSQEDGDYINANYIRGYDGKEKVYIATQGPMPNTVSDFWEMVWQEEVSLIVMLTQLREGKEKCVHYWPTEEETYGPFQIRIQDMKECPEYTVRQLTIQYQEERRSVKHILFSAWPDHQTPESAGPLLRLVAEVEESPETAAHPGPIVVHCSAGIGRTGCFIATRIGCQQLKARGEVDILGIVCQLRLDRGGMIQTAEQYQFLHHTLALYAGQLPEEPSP
Briefly: redox-dependent HePTP inhibition, mechanism study, biochemical, fluorescence (AID 2068). Format: functional.

Assay [10] in a line: compounds displacing fluorescent intercalator from DNA, dose response, counter-screen for HCV NS3 helicase inhibitor project, biochemical, fluorescence (AID 2172). On the technique in general: The purpose of a counterscreen is to sort out artefacts and off-target activity.
The target in assay [11] is Genome polyprotein (Hepatitis C virus, UniProt Q2Q167). Briefly: HCV core protein dimerization inhibitors, dose response, biochemical, TR-FRET (AID 2159).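 Note: blocks dimerization of HCV core protein measured by TR-FRET between tagged core106 pairs.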 The arrangement: species or system Hepacivirus hominis. (Time-resolved FRET reads energy transfer from a long-lived donor to a nearby acceptor.)
Genome polyprotein, sequence (Q2Q167 whole entry): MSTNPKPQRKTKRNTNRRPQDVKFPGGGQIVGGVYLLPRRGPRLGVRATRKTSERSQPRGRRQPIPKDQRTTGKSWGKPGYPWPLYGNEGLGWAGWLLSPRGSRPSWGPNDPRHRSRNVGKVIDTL
Assay [12] addresses NS3 (Hepatitis C virus, UniProt A3EZJ3). As to the kind of experiment: PubChem AID 2173. Further details: species or system Hepacivirus hominis.
For assay [13], the target named is Protein-tyrosine kinase 2-beta (Homo sapiens, UniProt Q14289).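 Note: potency of inhibitors of PYK2 kinase phosphorylation of poly-GT substrate.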
Protein-tyrosine kinase 2-beta, sequence (Q14289 whole entry): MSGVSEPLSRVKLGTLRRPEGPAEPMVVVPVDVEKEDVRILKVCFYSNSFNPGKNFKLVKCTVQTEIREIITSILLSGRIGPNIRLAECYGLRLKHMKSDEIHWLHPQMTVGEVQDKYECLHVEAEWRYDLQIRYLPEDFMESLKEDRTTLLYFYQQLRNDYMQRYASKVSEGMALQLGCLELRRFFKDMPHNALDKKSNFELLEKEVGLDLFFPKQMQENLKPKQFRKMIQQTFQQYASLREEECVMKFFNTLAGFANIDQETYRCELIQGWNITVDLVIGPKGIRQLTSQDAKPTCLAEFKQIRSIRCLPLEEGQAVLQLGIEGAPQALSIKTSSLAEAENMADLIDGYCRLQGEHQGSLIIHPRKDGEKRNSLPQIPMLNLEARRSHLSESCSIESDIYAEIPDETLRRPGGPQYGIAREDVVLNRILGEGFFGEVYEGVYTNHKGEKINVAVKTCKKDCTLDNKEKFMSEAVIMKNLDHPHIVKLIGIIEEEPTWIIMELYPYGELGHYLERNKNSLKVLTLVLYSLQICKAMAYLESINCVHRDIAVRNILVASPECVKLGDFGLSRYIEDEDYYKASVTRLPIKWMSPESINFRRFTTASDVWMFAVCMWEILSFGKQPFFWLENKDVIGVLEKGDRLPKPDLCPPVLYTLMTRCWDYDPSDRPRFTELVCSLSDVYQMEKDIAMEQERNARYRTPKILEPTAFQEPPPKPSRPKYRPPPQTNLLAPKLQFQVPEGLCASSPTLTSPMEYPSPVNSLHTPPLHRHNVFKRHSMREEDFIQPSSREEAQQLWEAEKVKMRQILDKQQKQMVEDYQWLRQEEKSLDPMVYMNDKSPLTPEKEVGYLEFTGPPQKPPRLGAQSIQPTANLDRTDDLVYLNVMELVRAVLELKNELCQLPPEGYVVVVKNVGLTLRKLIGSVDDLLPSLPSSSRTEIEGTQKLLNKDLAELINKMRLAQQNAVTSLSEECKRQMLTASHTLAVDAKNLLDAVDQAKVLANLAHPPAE
The target in assay [14] is Eukaryotic translation initiation factor 4E (Mus musculus, UniProt P63073). As to the kind of experiment: eIF4E–eIF4G protein interaction inhibitors, dose response, biochemical, TR-FRET (AID 855).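 Note: potency for disrupting eIF4E binding to eIF4GI seen as loss of FRET.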 Format: functional.
Eukaryotic translation initiation factor 4E, sequence (P63073 whole entry): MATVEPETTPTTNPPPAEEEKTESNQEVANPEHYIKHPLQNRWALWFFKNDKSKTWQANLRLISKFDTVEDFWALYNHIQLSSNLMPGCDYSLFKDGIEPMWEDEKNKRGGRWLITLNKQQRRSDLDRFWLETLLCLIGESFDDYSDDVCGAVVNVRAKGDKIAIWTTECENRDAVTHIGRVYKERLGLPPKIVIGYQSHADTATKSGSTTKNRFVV
The target in assay [15] is Bcl-2-like protein 10 (Homo sapiens, UniProt Q9HD36). Briefly: displacers of TR3 peptide from Bcl-B, primary screen, selectivity assay for Bfl-1 inhibitor project, biochemical, fluorescence polarization, FITC-TR3 peptide (AID 748). (In general: In fluorescence polarisation assays a small probe gives low polarisation when free and higher when bound to something large.);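 note: fluorescence polarization from a fluorescein-labelled TR3 peptide binding purified Bcl-B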
Bcl-2-like protein 10, sequence (Q9HD36 whole entry): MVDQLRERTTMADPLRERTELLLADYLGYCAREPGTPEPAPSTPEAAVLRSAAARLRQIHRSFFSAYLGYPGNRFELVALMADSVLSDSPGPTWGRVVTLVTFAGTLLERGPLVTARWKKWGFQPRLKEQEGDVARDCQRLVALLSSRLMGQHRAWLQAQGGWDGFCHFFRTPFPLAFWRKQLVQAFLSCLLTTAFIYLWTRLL

For assay [16], the target named is X-box-binding protein 1 (Homo sapiens, UniProt P17861). The assay is classed as functional, Cricetulus griseus.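 Note: confirmatory dose-response counter-screen serving a CHOP assay.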
X-box-binding protein 1, sequence (P17861 whole entry): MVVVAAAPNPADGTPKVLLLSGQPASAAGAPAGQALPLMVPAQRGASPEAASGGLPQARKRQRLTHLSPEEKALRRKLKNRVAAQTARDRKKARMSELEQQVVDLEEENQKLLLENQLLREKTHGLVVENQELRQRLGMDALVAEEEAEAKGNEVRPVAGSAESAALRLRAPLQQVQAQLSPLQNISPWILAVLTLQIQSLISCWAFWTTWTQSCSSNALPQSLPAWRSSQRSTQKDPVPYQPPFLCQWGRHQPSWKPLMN
Assay [17] concerns the target T5, Streptokinase A (Streptococcus pyogenes serotype M1, UniProt P10520).
T5 sequence (P10520 whole entry): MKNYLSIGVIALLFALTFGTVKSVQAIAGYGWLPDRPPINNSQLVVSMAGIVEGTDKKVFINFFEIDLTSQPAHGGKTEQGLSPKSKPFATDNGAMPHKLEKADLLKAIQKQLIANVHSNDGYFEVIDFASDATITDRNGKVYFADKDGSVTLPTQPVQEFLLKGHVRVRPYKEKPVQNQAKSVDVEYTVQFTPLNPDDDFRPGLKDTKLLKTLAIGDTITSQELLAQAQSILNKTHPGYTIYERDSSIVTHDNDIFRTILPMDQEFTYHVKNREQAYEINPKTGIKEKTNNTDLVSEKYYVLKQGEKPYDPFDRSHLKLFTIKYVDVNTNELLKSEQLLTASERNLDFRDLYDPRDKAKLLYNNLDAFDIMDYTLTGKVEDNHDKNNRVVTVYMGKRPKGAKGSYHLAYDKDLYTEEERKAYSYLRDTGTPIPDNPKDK
Briefly: S. pyogenes streptokinase expression inhibitors, potency, dose response, plasminogen activation absorbance, OD405 (AID 1914).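 Note: secreted streptokinase activity via plasminogen activation per viability signal from cell pellet.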 The assay is classed as functional, Streptococcus pyogenes M1 GAS.

The subject of assay [18] is Streptococcus. Briefly: Group A Streptococcus viability loss, dose response, counter-screen for streptokinase expression inhibitor project, luminescence, BacTiterGlo (AID 1915).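 Note: potency for reduction of bacterial viability or growth.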 The assay is classed as functional, organism-based.
Assay [19] has as its system Streptococcus sp. 'group A'. As to the kind of experiment: growth inhibition of control SK(-) GAS strain, dose response, counter-screen for streptokinase expression inhibitor project, luminescence, kanamycin, BacTiterGlo, confirmation (AID 1900). The assay is classed as functional, organism-based.

Nonstructural protein 1, sequence (Q194T2 whole entry): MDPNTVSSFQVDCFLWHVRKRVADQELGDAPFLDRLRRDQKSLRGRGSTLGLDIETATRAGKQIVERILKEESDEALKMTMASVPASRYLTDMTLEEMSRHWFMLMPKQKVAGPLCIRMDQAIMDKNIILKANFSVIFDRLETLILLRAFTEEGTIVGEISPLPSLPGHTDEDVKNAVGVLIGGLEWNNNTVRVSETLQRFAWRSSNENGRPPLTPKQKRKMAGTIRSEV
NS3, sequence (A3EZJ3 whole entry): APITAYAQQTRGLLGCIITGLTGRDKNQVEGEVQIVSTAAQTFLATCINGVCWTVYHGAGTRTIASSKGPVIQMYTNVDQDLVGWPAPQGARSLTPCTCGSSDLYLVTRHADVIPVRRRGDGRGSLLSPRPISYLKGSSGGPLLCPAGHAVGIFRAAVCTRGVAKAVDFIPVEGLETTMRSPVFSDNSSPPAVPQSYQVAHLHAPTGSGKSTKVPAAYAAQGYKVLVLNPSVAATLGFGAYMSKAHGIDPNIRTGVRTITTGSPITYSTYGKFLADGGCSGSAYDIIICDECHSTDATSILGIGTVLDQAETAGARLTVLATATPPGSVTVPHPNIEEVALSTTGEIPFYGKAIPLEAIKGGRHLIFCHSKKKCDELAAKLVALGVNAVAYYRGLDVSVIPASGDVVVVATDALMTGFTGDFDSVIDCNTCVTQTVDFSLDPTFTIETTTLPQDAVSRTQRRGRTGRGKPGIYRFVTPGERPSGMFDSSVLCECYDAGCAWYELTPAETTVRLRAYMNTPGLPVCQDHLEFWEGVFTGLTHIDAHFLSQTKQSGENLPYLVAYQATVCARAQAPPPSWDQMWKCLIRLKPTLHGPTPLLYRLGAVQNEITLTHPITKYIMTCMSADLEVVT

For the molecule `O=C1c2c(O)ccc(O)c2C(=O)c2c(NCCNCCO)ccc(NCCNCCO)c21` [MITOXANTRONE], the AC50 in assay [1] is 2.34 µM (active); in assay [5], 1.25 µM (active); in assay [7], < 244 nM (active). The cytotoxic concentration (CC50) in assay [2] is < 380 nM (active); in [8], 6.34 µM (active). The IC50 in assay [3] was 2.05 µM (active); in assay [4], > 122 µM (inactive); in assay [6] it was 14.5 µM (active).

On to `CC(=O)c1ccc(NC(=O)c2ccc3nc(-c4ccco4)c(-c4ccco4)nc3c2)cc1`, for which the IC50 in assay [9] is 998 nM (active) and 805 nM (active); in assay [10], 83.5 µM (not active); in assay [11] it was > 49.8 µM (not active); in [12], 5.88 µM (active); in [13], 1.24 µM (active); in [14] it was > 64 µM (inactive). Further, the concentration for half-maximal inhibition (IC50) in assay [15] was 14.6 µM (active).

Regarding `Cc1cc(O)c(NC(=S)NC(=O)c2ccc(-c3ccc(Cl)cc3)o2)cc1C`, in [16], the “Absolute IC50 (XBP1)” value worked out at 10 µM. Moreover, the figures for the EC50 in assay [17], in assay [18] and in [19] were > 150 µM (not active), 12.2 µM (active) and 959 nM (active), respectively.

For orientation: AC50 means the midpoint of the concentration-response curve, whichever way the signal moves. In general, CC50 refers to the concentration at which the toxic effect on the cells reaches its halfway point. A word on the IC50: it is the midpoint of a concentration-inhibition curve. A word on the EC50: it is the concentration at which the effect is half-maximal.
